Measured values taken from patent publication US9206219B2, “17-hydroxy-17-pentafluorethyl-estra-4,9(10)-dien-11-aryl derivatives, methods for the production thereof and the use thereof for treating diseases” (Bayer Intellectual Property GmbH, priority 2009, dated 2015).

Key:
[1] = molecular target: T1, human progesterone receptor B (Homo sapiens, UniProt P06401); test: Progesterone receptor-antagonistic action in stably transfected SK-N-MC cells, MMTV-LUC reporter (PR-B); assay type: cell-based; conditions: antagonistic potency vs 0.1 nmol/l promegestone, 24 hours
T1 construct: expressed in transfected cells; host or cells: SK-N-MC human neuroblastoma cells, stably transfected with pRChPR-B-neo and pMMTV-LUC
T1 sequence (P06401 1-933): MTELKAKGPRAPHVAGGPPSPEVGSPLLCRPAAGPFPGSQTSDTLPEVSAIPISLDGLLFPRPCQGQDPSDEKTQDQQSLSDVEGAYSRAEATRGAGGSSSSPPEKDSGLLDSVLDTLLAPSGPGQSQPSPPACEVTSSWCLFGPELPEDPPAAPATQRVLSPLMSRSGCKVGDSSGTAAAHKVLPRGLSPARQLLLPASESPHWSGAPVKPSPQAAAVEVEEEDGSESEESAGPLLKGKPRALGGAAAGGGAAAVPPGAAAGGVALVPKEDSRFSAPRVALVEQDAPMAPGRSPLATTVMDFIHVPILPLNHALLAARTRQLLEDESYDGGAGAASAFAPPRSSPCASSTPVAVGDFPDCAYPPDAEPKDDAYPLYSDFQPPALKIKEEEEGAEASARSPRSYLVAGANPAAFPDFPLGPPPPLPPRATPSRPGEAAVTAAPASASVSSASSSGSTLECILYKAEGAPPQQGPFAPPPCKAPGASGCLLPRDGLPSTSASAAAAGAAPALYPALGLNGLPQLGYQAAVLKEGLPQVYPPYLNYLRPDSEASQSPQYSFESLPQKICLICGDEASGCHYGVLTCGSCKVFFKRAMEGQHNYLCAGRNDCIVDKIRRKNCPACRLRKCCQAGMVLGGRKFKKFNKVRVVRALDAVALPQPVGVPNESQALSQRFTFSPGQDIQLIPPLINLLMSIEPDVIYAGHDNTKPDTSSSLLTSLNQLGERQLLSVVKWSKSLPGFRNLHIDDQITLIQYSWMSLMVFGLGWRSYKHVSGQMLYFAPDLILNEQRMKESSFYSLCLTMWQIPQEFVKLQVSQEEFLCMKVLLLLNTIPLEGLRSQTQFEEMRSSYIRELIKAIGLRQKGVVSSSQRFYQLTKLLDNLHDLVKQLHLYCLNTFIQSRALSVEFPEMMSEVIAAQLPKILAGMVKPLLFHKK
Method: (§1) Progesterone Receptor-Antagonistic Action in Stable Transfectants of Human Neuroblastoma Cells (SK-N-MC Cells) with the Human Progesterone A or Progesterone B Receptor and an MN-LUC Reporter Construct
(§2) SK-N-MC cells (human neuroblastoma cells) which have been stably transfected with plasmids expressing the human progesterone receptor B (pRChPR-B-neo) or the human progesterone receptor A (pRChPR-A-neo) and a reporter construct (pMMTV-LUC) were incubated for 24 hours either in the absence (negative control) or in the presence of ascending amounts of the particular test compound (0.01 nmol/l, 0.1 nmol/l, 1 nmol/l, 10 nmol/l, 100 nmol/l and […]), in order to determine the agonistic efficacy. As a positive control of the reporter gene induction, the cells were treated with the synthetic gestagen promegestone (0.01 nmol/l, 0.1 nmol/l, 1 nmol/l, 10 nmol/l, 100 nmol/l and […]). To determine the antagonistic activity, the cells were treated with 0.1 nmol/l promegestone and additionally with ascending amounts of the particular test compound (0.01 nmol/l, 0.1 nmol/l, 1 nmol/l, 10 nmol/l, 100 nmol/l and […]). The activity of the reporter gene LUC (LUC=luciferase) was determined in the cell lysates and measured as RLU (relative light units). All measurements are reported as % efficacy and as EC50 and IC50 concentrations.

[2] = molecular target: T2, human progesterone receptor A (Homo sapiens, UniProt P06401); test: Progesterone receptor-antagonistic action in stably transfected SK-N-MC cells, MMTV-LUC reporter (PR-A); assay type: cell-based; conditions: antagonistic potency vs 0.1 nmol/l promegestone, 24 hours
T2 construct: expressed in transfected cells; host or cells: SK-N-MC human neuroblastoma cells, stably transfected with pRChPR-A-neo and pMMTV-LUC
T2 sequence (P06401 1-769 isoform P06401-2): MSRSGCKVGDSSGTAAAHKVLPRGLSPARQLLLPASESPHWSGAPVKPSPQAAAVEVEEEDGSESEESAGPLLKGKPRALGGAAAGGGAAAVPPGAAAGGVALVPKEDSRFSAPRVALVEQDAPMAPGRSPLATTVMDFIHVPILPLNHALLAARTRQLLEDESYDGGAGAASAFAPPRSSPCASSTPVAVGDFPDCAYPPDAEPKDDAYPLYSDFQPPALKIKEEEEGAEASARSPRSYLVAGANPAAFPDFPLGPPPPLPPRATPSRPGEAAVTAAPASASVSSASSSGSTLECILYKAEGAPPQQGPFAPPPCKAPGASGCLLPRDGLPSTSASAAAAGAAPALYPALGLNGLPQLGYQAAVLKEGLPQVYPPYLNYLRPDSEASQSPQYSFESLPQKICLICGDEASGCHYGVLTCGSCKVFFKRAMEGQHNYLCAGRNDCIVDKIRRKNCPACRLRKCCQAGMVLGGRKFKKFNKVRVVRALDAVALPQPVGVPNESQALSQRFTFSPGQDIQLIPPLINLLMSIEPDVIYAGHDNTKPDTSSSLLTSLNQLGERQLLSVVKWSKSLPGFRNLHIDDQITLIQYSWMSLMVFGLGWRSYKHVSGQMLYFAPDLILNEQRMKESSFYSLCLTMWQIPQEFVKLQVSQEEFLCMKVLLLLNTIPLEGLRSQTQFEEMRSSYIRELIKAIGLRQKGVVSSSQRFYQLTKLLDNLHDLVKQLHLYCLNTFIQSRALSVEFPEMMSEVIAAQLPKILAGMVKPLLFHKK
Method: as §1, §2

Structure (SMILES)	IC50 [1] [nM]	IC50 [2] [nM]
C[C@]12C[C@H](c3ccc(-c4nnn[nH]4)cc3)C3=C4CCC(=O)C=C4CC[C@H]3[C@@H]1CC[C@@]2(O)C(F)(F)C(F)(F)F [Example 31, (8S,11R,13S,14S,17S)-17-hydroxy-13-methyl-17-pentafluoroethyl-11-[4-(1H-tetrazol-5-yl)phenyl]-1,2,6,7,8,11,12,13,14,15,16,17-dodecahydrocyclopenta[a]phenanthren-3-one]	137	138
C[C@]12C[C@H](c3cccc(CCO)c3)C3=C4CCC(=O)C=C4CC[C@H]3[C@@H]1CC[C@@]2(O)C(F)(F)C(F)(F)F [Example 14, (8S,11R,13S,14S,17S)-17-hydroxy-11-[3-(2-hydroxyethyl)phenyl]-13-methyl-17-pentafluoroethyl-1,2,6,7,8,11,12,13,14,15,16,17-dodecahydrocyclopenta[a]phenanthren-3-one]	1	1
C[C@]12C[C@H](c3ccc(CNC(=O)Nc4ccc(Cl)cc4)cc3)C3=C4CCC(=O)C=C4CC[C@H]3[C@@H]1CC[C@@]2(O)C(F)(F)C(F)(F)F [Example 34, 1-(4-chlorophenyl)-3-[4-((8S,11R,13S,14S,17S)-17-hydroxy-13-methyl-3-oxo-17-pentafluoroethyl-2,3,6,7,8,11,12,13,14,15,16,17-dodecahydro-1H-cyclopenta[a]phenanthren-11-yl)benzyl]urea]	0.8	0.7
C[C@]12C[C@H](c3ccc(CNC(=O)Nc4ccc(C(=O)O)cc4)cc3)C3=C4CCC(=O)C=C4CC[C@H]3[C@@H]1CC[C@@]2(O)C(F)(F)C(F)(F)F [Example 38, 4-{3-[4-((8S,11R,13S,14S,17S)-17-hydroxy-13-methyl-3-oxo-17-pentafluoroethyl-2,3,6,7,8,11,12,13,14,15,16,17-dodecahydro-1H-cyclopenta[a]phenanthren-11-yl)benzyl]ureido}benzoic acid]	36	25
CC(C)(C)NC(=O)OCc1ccc([C@H]2C[C@@]3(C)[C@@H](CC[C@@]3(O)C(F)(F)C(F)(F)F)[C@@H]3CCC4=CC(=O)CCC4=C32)cc1 [Example 44, tert-butylcarbamic acid 4-((8S,11R,13S,14S,17S)-17-hydroxy-13-methyl-3-oxo-17-pentafluoroethyl-2,3,6,7,8,11,12,13,14,15,16,17-dodecahydro-1H-cyclopenta[a]phenanthren-11-yl)benzyl ester]	0.1	0.1
C[C@]12C[C@H](c3ccc(COC(=O)NCc4ccccc4)cc3)C3=C4CCC(=O)C=C4CC[C@H]3[C@@H]1CC[C@@]2(O)C(F)(F)C(F)(F)F [Example 56, benzylcarbamic acid 4-((8S,11R,13S,14S,17S)-17-hydroxy-13-methyl-3-oxo-17-pentafluoroethyl-2,3,6,7,8,11,12,13,14,15,16,17-dodecahydro-1H-cyclopenta[a]phenanthren-11-yl)benzyl ester]	0.3	0.2
C[C@]12C[C@H](c3ccc(COC(=O)Nc4ccc(Cl)cc4)cc3)C3=C4CCC(=O)C=C4CC[C@H]3[C@@H]1CC[C@@]2(O)C(F)(F)C(F)(F)F [Example 50, (4-chlorophenyl)carbamic acid 4-((8S,11R,13S,14S,17S)-17-hydroxy-13-methyl-3-oxo-17-pentafluoroethyl-2,3,6,7,8,11,12,13,14,15,16,17-dodecahydro-1H-cyclopenta[a]phenanthren-11-yl)benzyl ester]	0.4	0.1
COc1ccc(NC(=O)NCc2ccc([C@H]3C[C@@]4(C)[C@@H](CC[C@@]4(O)C(F)(F)C(F)(F)F)[C@@H]4CCC5=CC(=O)CCC5=C43)cc2)cc1 [Example 32, 1-[4-((8S,11R,13S,14S,17S)-17-hydroxy-13-methyl-3-oxo-17-pentafluoroethyl-2,3,6,7,8,11,12,13,14,15,16,17-dodecahydro-1H-cyclopenta[a]phenanthren-11-yl)benzyl]-3-(4-methoxyphenyl)urea]	0.2	0.1
C=CCNC(=O)NCc1ccc([C@H]2C[C@@]3(C)[C@@H](CC[C@@]3(O)C(F)(F)C(F)(F)F)[C@@H]3CCC4=CC(=O)CCC4=C32)cc1 [Example 18, 1-allyl-3-[4-((8S,11R,13S,14S,17S)-17-hydroxy-13-methyl-3-oxo-17-pentafluoroethyl-2,3,6,7,8,11,12,13,14,15,16,17-dodecahydro-1H-cyclopenta[a]phenanthren-11-yl)benzyl]urea]	0.8	0.8
C[C@]12C[C@H](c3ccc(CNC(=O)NCCC(=O)O)cc3)C3=C4CCC(=O)C=C4CC[C@H]3[C@@H]1CC[C@@]2(O)C(F)(F)C(F)(F)F [Example 27, 3-{3-[4-((8S,11R,13S,14S,17S)-17-hydroxy-13-methyl-3-oxo-17-pentafluoroethyl-2,3,6,7,8,11,12,13,14,15,16,17-dodecahydro-1H-cyclopenta[a]phenanthren-11-yl)benzyl]ureido}propionic acid]	29	43
CC(O)c1cccc([C@H]2C[C@@]3(C)C(CC[C@@]3(O)C(F)(F)C(F)(F)F)C3CCC4=CC(=O)CCC4=C32)c1 (mixture of isomers) [Example 11, (8S,11R,13S,14S,17S)-17-hydroxy-11-[3-((RS)-1-hydroxyethyl)phenyl]-13-methyl-17-pentafluoroethyl-1,2,6,7,8,11,12,13,14,15,16,17-dodecahydrocyclopenta[a]phenanthren-3-one]	3	2
Cc1ccc(NC(=O)NCc2ccc([C@H]3C[C@@]4(C)[C@@H](CC[C@@]4(O)C(F)(F)C(F)(F)F)[C@@H]4CCC5=CC(=O)CCC5=C43)cc2)cc1 [Example 25, 1-[4-((8S,11R,13S,14S,17S)-17-hydroxy-13-methyl-3-oxo-17-pentafluoroethyl-2,3,6,7,8,11,12,13,14,15,16,17-dodecahydro-1H-cyclopenta[a]phenanthren-11-yl)benzyl]-3-p-tolylurea]	0.6	0.3
C[C@]12C[C@H](c3ccc(CNC(=O)Nc4ccc(N5CCCCC5)cc4)cc3)C3=C4CCC(=O)C=C4CC[C@H]3[C@@H]1CC[C@@]2(O)C(F)(F)C(F)(F)F [Example 39, 1-[4-((8S,11R,13S,14S,17S)-17-hydroxy-13-methyl-3-oxo-17-pentafluoroethyl-2,3,6,7,8,11,12,13,14,15,16,17-dodecahydro-1H-cyclopenta[a]phenanthren-11-yl)benzyl]-3-(4-piperidin-1-ylphenyl)urea]	0.2	0.1
